Assay [1] has as its system basal gastric acid secretion. The assay is described as follows: Inhibitory effects on basal gastric acid secretion in pylorus-ligated rats (Shay's rat model). To be noted: oral, one hour before pylorus ligation, total acid output 5 hours after ligation. The format is in vivo, Sprague Dawley (SD) rats. On the procedure: Inhibitory effects of the compounds of the present invention on basal gastric acid secretion were performed according to Shay's rat model (Shay, H., et al., 1945, gastroenterology, 5, 43-61). Male Sprague Dawley (SD) rats (200±10 g body weight) were divided into […] (n=5) and fasted for 24 hours with free access to water. Control group was orally administered with 0.5% methylcellulose alone and the other groups were orally administered with test compounds suspended in 0.5% methylcellulose solution at doses of 1, 3 and 10 mg/kg/5 ml one hour before pylorus ligation.
Under ether anesthesia, the abdomens of the rats were incised and then the pylorus was ligated. 5 hours after ligation, the animals were sacrificed, and the gastric contents were collected. The collected contents were centrifuged at 1,000×g for 10 minutes to obtain the gastric juice. Total acid output was measured by 0.01N NaOH volume (ueq/ml) for automatic titration of the gastric juice to pH 7.0 and the ED50s of test compounds were calculated using the Litchfield-Wilcoxon method. % inhibitory activity was calculated from the following equation and the results are shown in Table 2. % inhibitory activity of test compound=(total acid output of control group−total acid output of the group treated with test compounds)/total acid output of control group×100

The target in assay [2] is Proton Pump (H^+/K^+-ATPase) (Sus scrofa, UniProt P19156). The assay is described as follows: Inhibitory effects on proton pump (H^+/K^+-ATPase) activity. To be noted: hog gastric vesicles; K^+ stimulated H^+/K^+-ATPase activity; 30 minutes at 37° C. The format is biochemical.
Assay [3] concerns the target T1, hog gastric H^+/K^+-ATPase (Sus scrofa, UniProt P19156).
T1 construct: from tissue; host or cells: hog gastric fundic mucosa; gastric vesicles (microsomes), lyophilized
Kind of assay: Reversible inhibition of hog gastric H^+/K^+-ATPase (washout method). The format is biochemical. As for the experimental part: 3-1. Preparation of Gastric Vesicles
[…]. IX. Fraction and purification of K-ATPase-containing vesicles by zonal centrifugation and free-flow electrophoresis techinque. Biochem. Biophy. Acta. (BBA)-Biomembranes 465, 311-330, 1977). This matertal was lyophilized and stored at −70° C. The protein content of gastric vesicles was determined by the Bradford method using bovine serum albumin as a standard (Bradford M M, A rapid and sensitive method for the quantitation of microgram quantities of protein utilizing the principle of protein-dye binding. Anal Biochem. 72, 248-254, 1976).
3-2. Determination of Reversible Inhibition of Hog Gastric H^+/K^+-ATPase
Activity of H^+/K^+-ATPase in hog microsome (lyophilized vesicle) was measured by the inorganic phosphate released from ATP using an one-step calorimetric detection method at the concentration at which the test compounds have 50% inhibition of the proton pump (Chan K M, Delfert D, and Junger K D, A direct calorimetric assay for Ca^2+-stimulated ATPase activity. Anal Biochem, 157, 375-380, 1986). The mode of action of test compounds on H^+/K^+-ATPase was investigated according to the Washout method (Beil W, Staar U, and Sewing K F, Substituted thieno[3,4-d]imidazoles, a novel group of H^+/K+-ATPase inhibitors. Differentiation of their inhibition charactertstics from those of omeprazole. Eur. J. Pharmacol., 187, 455-67, 1990). […]

Twelve compounds from patent US7662832B2, “Pyrrolo[2,3-c]pyridine derivatives and processes for the preparation thereof” (priority 2004, dated 2010) can be followed below.

Counter-ions that a name gives are not always drawn.

Sequence of Proton Pump (H^+/K^+-ATPase) (P19156 2-1034 limits assumed): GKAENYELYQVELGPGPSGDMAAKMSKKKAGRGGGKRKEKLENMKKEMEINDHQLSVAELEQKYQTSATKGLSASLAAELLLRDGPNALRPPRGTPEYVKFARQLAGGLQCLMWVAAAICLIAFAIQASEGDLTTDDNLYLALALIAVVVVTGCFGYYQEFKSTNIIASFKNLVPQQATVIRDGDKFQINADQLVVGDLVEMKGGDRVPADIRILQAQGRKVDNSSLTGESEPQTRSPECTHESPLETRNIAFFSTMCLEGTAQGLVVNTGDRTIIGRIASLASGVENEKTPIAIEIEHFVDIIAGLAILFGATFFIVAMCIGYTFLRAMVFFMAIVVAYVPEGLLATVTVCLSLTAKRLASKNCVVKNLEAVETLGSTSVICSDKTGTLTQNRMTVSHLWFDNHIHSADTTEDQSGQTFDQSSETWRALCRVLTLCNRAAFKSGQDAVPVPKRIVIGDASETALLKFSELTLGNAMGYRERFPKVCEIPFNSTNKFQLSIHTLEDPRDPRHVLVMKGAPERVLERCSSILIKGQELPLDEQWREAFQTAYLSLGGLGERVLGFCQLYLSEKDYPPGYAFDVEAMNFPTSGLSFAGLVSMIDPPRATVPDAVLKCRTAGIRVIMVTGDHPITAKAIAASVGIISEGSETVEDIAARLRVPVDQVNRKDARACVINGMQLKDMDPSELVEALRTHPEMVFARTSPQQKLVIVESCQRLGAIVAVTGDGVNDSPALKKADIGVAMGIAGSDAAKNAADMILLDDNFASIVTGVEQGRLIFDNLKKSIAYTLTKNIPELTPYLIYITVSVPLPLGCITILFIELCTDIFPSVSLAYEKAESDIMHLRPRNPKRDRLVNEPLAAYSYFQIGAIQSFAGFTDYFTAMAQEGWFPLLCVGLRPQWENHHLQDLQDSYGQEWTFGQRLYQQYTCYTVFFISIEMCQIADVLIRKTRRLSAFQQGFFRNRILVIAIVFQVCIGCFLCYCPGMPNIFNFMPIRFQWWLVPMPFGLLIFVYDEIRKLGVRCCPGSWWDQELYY
Sequence of Proton Pump (H^+/K^+-ATPase) (P18434 whole entry partner): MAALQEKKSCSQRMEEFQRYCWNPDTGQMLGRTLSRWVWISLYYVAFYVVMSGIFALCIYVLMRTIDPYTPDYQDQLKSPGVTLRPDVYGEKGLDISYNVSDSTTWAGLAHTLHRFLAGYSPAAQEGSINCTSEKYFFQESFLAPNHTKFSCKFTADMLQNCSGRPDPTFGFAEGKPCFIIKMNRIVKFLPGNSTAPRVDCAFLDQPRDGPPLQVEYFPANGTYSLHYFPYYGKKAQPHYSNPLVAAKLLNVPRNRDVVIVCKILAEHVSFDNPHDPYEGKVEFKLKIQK
T1 sequence (P19156 2-1034 limits assumed): as the sequence (P19156 2-1034 limits assumed) above
T1 sequence (P18434 whole entry partner): as the sequence (P18434 whole entry partner) above

On to `Cc1c(C)n(C)c2c(N3CCc4ccccc4C3)nccc12.Cl` [Example 470, 7-(1,2,3,4-tetrahydroisoquinolin-2-yl)-1,2,3-trimethyl-1H-pyrrolo[2,3-c]pyridine hydrochloride], for which the 50% effect level in assay [1] (ED50) was put at a dose of 4.4 mg/kg. For the same compound, in assay [2], the IC50 (as a rule, the concentration needed to halve the response being measured) came to 320 nM.
As to `C=CCn1c(C)c(C)c2ccnc(N3CCc4ccccc4C3C)c21.Cl` (centres unmarked) [Example 553, 2-(1-allyl-2,3-dimethyl-1H-pyrrolo[2,3-c]pyridin-7-yl)-1-methyl-1,2,3,4-tetrahydroisoquinoline hydrochloride], it took a dose of 2.1 mg/kg to reach the 50% effect level in assay [1] (ED50). Besides, the IC50 in assay [2] came out at 26 nM.
In the case of `C=CCn1c(C)c(C)c2ccnc(N3CCc4ccccc4C3)c21.Cl` [Example 484, 1-allyl-7-(1,2,3,4-tetrahydroisoquinolin-2-yl)-2,3-dimethyl-1H-pyrrolo[2,3-c]pyridine hydrochloride], the ED50 – broadly, the dose that gives a 50% effect, or the effect in half of the subjects – in assay [1] worked out at 1.4 mg/kg. In assay [2], the IC50 stood at 3.7 nM.
On to `Cc1c(C)n(Cc2ccccc2)c2c(N(C)Cc3ccc(F)cc3)nccc12` [Example 141, 1-benzyl-7-[N-(4-fluorobenzyl)-N-methyl]amino-2,3-dimethyl-1H-pyrrolo[2,3-c]pyridine hydrochloride], for which the ED50 in assay [1] turned out to be 2.3 mg/kg. In addition, inhibition in assay [2] was half-maximal at 64 nM (IC50).
`C=COCCn1c(C)c(C)c2ccnc(N3CCc4ccccc4C3)c21.Cl` [Example 511, 1-(2-vinyloxyethyl)-7-(1,2,3,4-tetrahydroisoquinolin-2-yl)-2,3-dimethyl-1H-pyrrolo[2,3-c]pyridine hydrochloride]: in assay [1], the ED50 was determined as 2.1 mg/kg. Moreover, the IC50 in assay [2] is 420 nM.
Consider `Cc1ccc(Cn2c(C)c(C)c3ccnc(N4CCc5ccccc5C4)c32)cc1.Cl` [Example 477, 1-(4-methylbenzyl)-7-(1,2,3,4-tetrahydroisoquinolin-2-yl)-2,3-dimethyl-1H-pyrrolo[2,3-c]pyridine hydrochloride], for which the 50% effect level in assay [1] (ED50) was put at a dose of 2 mg/kg. In assay [2], this compound came in with an IC50 of 300 nM.
`C=CCn1c(C)c(C)c2ccnc(N3CCc4cc(F)ccc4C3C)c21.Cl` (centres unmarked) [Example 563, 2-(1-allyl-2,3-dimethyl-1H-pyrrolo[2,3-c]pyridin-7-yl)-6-fluoro-1-methyl-1,2,3,4-tetrahydroisoquinoline hydrochloride]: the ED50 in assay [1] stood at 3.5 mg/kg. In assay [2], it took 49 nM to reach half-maximal inhibition (IC50).
The compound `CCCn1c(C)c(C)c2ccnc(NCc3ccc(Cl)cc3)c21.Cl` [Example 229, 7-(4-chlorobenzylamino)-2,3-dimethyl-1-propyl-1H-pyrrolo[2,3-c]pyridine hydrochloride] had an ED50 in assay [1] of 2.2 mg/kg. In assay [2], this compound displayed an IC50 of 240 nM.
In turn, `Cc1c(C)n(Cc2cccc(F)c2)c2c(N3CCc4ccccc4C3)nccc12.Cl` [Example 480, 1-(3-fluorobenzyl)-7-(1,2,3,4-tetrahydroisoquinolin-2-yl)-2,3-dimethyl-1H-pyrrolo[2,3-c]pyridine hydrochloride] had an ED50 in assay [1] of 1.8 mg/kg. Moreover, the IC50 in assay [2] came out at 32 nM. Further, the “inhibition of H^+/K^+-ATPase activity after washout” value in assay [3] (after washout, compared with non-treated group) is reported as “did not inhibit”. For the same compound, the “inhibition of H^+/K^+-ATPase activity before washout” value in assay [3] (before washout, test compound at the concentration of 50% inhibition of the proton pump) is 50%.
On to `Cc1c(C)n(CC(C)C)c2c(NCc3ccc(F)cc3)nccc12.Cl` [Example 208, 7-(4-fluorobenzylamino)-1-isobutyl-2,3-dimethyl-1H-pyrrolo[2,3-c]pyridine hydrochloride], for which the ED50 in assay [1] was found to be 1.3 mg/kg. The same compound returned an IC50 in assay [2] of 94 nM.
Regarding `COc1ccc(Cn2c(C)c(C)c3ccnc(N4CCc5ccccc5C4)c32)cc1.Cl` [Example 482, 1-(4-methoxybenzyl)-7-(1,2,3,4-tetrahydroisoquinolin-2-yl)-2,3-dimethyl-1H-pyrrolo[2,3-c]pyridine hydrochloride], it took a dose of 2.4 mg/kg to reach the 50% effect level in assay [1] (ED50). Moreover, the concentration for half-maximal inhibition (IC50) in assay [2] is 360 nM.
For `Cc1nc(Cn2c(C)c(C)c3ccnc(N4CCc5ccccc5C4)c32)cs1.Cl` [Example 474, 1-(2-methylthiazol-4-ylmethyl)-7-(1,2,3,4-tetrahydroisoquinolin-2-yl)-2,3-dimethyl-1H-pyrrolo[2,3-c]pyridine hydrochloride], in that order: 11.9 mg/kg and 110 nM.
